Data taken from patent EP4049726A1, “IMIDAZO[1,2-A]PYRAZINES AS INHIBITORS OF HASPIN AND THERAPEUTIC USES THEREOF” (Fundación del Sector Público Estatal Centro Nacional de …, priority 2021, dated 2022).
pEC50, pIC50: −log10 of the molar value.

Assays:
HASPIN [1] = target: T1, HASPIN (Homo sapiens, UniProt Q8TF76); experiment: Cellular HASPIN inhibition assay (phosphorylation of H3T3, western blot); assay type: cell-based; conditions: MV4:11 cells, 8 hours of treatment, read-out: pH3T3 EC50
T1 sequence (Q8TF76 1-798): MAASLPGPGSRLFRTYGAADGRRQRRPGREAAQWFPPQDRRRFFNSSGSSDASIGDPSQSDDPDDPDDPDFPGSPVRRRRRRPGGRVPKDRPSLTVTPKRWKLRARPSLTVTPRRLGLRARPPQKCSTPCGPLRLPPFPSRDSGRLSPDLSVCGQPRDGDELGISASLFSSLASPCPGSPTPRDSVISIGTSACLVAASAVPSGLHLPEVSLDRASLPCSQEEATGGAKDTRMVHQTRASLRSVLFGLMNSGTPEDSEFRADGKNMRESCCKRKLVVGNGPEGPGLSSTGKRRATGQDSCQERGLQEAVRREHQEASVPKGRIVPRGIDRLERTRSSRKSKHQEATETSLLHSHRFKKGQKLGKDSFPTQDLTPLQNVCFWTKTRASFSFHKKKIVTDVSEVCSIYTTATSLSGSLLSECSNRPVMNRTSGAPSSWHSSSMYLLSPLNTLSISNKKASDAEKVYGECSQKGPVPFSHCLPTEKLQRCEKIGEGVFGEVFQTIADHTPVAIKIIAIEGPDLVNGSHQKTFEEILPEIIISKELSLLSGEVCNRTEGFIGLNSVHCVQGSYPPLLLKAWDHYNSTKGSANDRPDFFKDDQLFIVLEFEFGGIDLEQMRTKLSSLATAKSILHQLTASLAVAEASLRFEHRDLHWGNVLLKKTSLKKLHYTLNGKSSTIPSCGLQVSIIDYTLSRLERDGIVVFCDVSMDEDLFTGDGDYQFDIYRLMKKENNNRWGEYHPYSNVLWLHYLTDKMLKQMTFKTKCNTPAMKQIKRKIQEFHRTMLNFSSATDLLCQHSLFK
Protocol: Cellular HASPIN Inhibition Assay (phosphorylation of H3T3): Compounds can be screened for their ability to inhibit intracellular HASPIN using a western blot assay to detect phosphorylation of the HASPIN substrate H3T3 in synchronized cells. MV4:11 cells are plated at 400000 cells per well in 6-well plates in RPMI media supplemented with 10% foetal bovine serum, Penicillin/Streptomycin solution diluted 1: 100, and fungizone, and allowed to adhere overnight at 37 °C in 5% CO2. Then, compounds are added to the cell media from a final concentration of 10 µM in 10-fold serial dilutions and the cells are incubated at 37 °C in 5% CO2. After 8 hours of treatment with the compounds, the cells are washed in PBS, lysed adding 100 µl of protein lysis buffer (62.5 mM Tris pH 6.8 al 6.25%, 2% SDS y 10% glycerol) incubation 10 minutes at room temperature and heating at 95 °C 10 min. The protein content of the lysates is determined by DC protein assay. The proteins are resolved by SDS-PAGE and transferred to nitrocellulose membrane. The membranes are incubated overnight at 4 °C with antibodies specific for H3, phosphothreonine-3 H3 they are washed and then incubated with IRDye800 conjugated antimouse and Alexa Fluor 680 goat anti-rabbit IgG secondary antibodies. The bands are visualized and quantified using an Odyssey infrared imaging system. The percentage of H3 phosphorylation is finally plotted against concentration for each compound and EC50s for intracellular HASPIN inhibition are calculated using a software platform for screening data management.

HASPIN [2] = target: T1, HASPIN; experiment: HASPIN biochemical assay (ADP-Glo, HASPIN autophosphorylation); conditions: ATP 150 µM, 60 min at 30 °C
Protocol: HASPIN biochemical Assay: The biochemical assay to measure HASPIN activity relies on the ADP-Glo™ assay kit (Promega) that determines the amount of ADP as direct product of the kinase enzyme activity. Assay conditions were as indicated by the kit manufacturers with the following adaptations for the kinase activity step: Kinase assay buffer and assay volume (15 mM HEPES pH 7.5, 20 mM NaCl, 1 mM EGTA, 0.02% TWEEN 20, 10 mM MgCl2, 0.1 mg/mL BGG)/25 µL assay volume). Incubation time and temperature: 60 min at 30 °C. HASPIN final concentration: 0.9 µg/mL. ATP final concentration: 150 µM. HASPIN autophosphorylation was measured. Assays were performed in 384-well plates. The final outcome of the coupled reactions provided by the kit is the release of […] and has been measured with a multilabel HTS counter Victor V / Envision. Values were normalized against the control activity included (100% HASPIN activity, without compound). Values were plotted against the inhibitor concentration and fit to a sigmoid dose-response curve using Activity base by IDBS software.

Row | SMILES | pEC50 (HASPIN [1]) | pIC50 (HASPIN [2])
1 | NC(=O)c1cn2cc(-c3ccnc(Cl)c3)nc(NCC3CCNCC3)c2n1 [Compound 3, 6-(2-Chloro-pyridin-4-yl)-8-[(piperidin-4-ylmethyl)-amino]-imidazo[1,2-a]pyrazine-2-carboxylic acid amide] | > 7.30 | 7.34
2 | CNC(=O)c1cn2cc(-c3ccncc3)nc(NCC3CCNCC3)c2n1 [Compound 4, 8-[(Piperidin-4-ylmethyl)-amino]-6-pyridin-4-yl-imidazo[1,2-a]pyrazine-2-carboxylic acid methylamide] | > 7.30 | 7.69
3 | CNC(=O)c1nc2c(NCC3(C#N)CCNCC3)nc(-c3ccnc(Cl)c3)cn2c1C [Compound 21, 6-(2-Chloro-pyridin-4-yl)-8-[(4-cyano-piperidin-4-ylmethyl)-amino]-3-methyl-imidazo[1,2-a]pyrazine-2-carboxylic acid methylamide] |  | 6.82
4 | Cc1c(C(N)=O)nc2c(NCC3(C#N)CCNCC3)nc(-c3ccnc(Cl)c3)cn12 [Compound 24, 6-(2-Chloro-pyridin-4-yl)-8-[(4-cyano-piperidin-4-ylmethyl)-amino]-3-methyl-imidazo[1,2-a]pyrazine-2-carboxylic acid amide] |  | 6.95
5 | CNC(=O)c1cn2cc(-c3ccncc3F)nc(NCC3CCNCC3)c2n1 [Compound 28, 6-(3-Fluoro-pyridin-4-yl)-8-[(piperidin-4-ylmethyl)-amino]-imidazo[1,2-a]pyrazine-2-carboxylic acid methylamide] |  | 7.71
6 | NC(=O)c1cn2cc(-c3ccncc3Cl)nc(NCC3CCNCC3)c2n1 [Compound 30, 6-(3-Chloro-pyridin-4-yl)-8-[(piperidin-4-ylmethyl)-amino]-imidazo[1,2-a]pyrazine-2-carboxylic acid amide] |  | 6.73
7 | CNC(=O)c1cn2cc(-c3ccncc3Cl)nc(NCC3CCNCC3)c2n1 [Compound 31, 6-(3-Chloro-pyridin-4-yl)-8-[(piperidin-4-ylmethyl)-amino]-imidazo[1,2-a]pyrazine-2-carboxylic acid methylamide] |  | 6.72
8 | CNC(=O)c1nc2c(NCC3CCNCC3)nc(-c3ccncc3F)cn2c1C [Compound 35, 6-(3-Fluoro-pyridin-4-yl)-3-methyl-8-[(piperidin-4-ylmethyl)-amino]-imidazo[1,2-a]pyrazine-2-carboxylic acid methylamide] |  | 7.02
9 | NC(=O)c1cn2cc(-c3ccncc3)nc(N[C@H]3CC[C@@H](N)CC3)c2n1 [Compound 39, 8-(cis-4-Amino-cyclohexylamino)-6-pyridin-4-yl-imidazo[1,2-a]pyrazine-2-carboxylic acid amide] |  | 6.85

Second part, the molecule after the results:

Row | pEC50 (HASPIN [1]) | pIC50 (HASPIN [2]) | SMILES
10 | > 7.30 | 7.71 | N#CC1(CNc2nc(-c3ccncc3)cn3cc(C(N)=O)nc23)CCNCC1 [Compound 8, 8-[(4-Cyano-piperidin-4-ylmethyl)-amino]-6-pyridin-4-yl-imidazo[1,2-a]pyrazine-2-carboxylic acid amide]
11 |  | 6.80 | Cc1c(C(N)=O)nc2c(NCC3(F)CCNCC3)nc(-c3ccnc(Cl)c3)cn12 [Compound 25, 6-(2-Chloro-pyridin-4-yl)-8-[(4-fluoro-piperidin-4-ylmethyl)-amino]-3-methyl-imidazo[1,2-a]pyrazine-2-carboxylic acid amide]
12 | > 7.30 | 8.03 | NC(=O)c1cn2cc(-c3ccncc3F)nc(NCC3CCNCC3)c2n1 [Compound 27, 6-(3-Fluoro-pyridin-4-yl)-8-[(piperidin-4-ylmethyl)-amino]-imidazo[1,2-a]pyrazine-2-carboxylic acid amide]
13 |  | 8.18 | N#CC1(CNc2nc(-c3ccncc3F)cn3cc(C(N)=O)nc23)CCNCC1 [Compound 29, 8-[(4-Cyano-piperidin-4-ylmethyl)-amino]-6-(3-fluoro-pyridin-4-yl)-imidazo[1,2-a]pyrazine-2-carboxylic acid amide]
14 | > 7.30 | 8.12 | CNC(=O)c1cn2cc(-c3ccncc3F)nc(NCC3(C#N)CCNCC3)c2n1 [Compound 32, 8-[(4-Cyano-piperidin-4-ylmethyl)-amino]-6-(3-fluoro-pyridin-4-yl)-imidazo[1,2-a]pyrazine-2-carboxylic acid methylamide]
15 | > 7.30 | 7.98 | NC(=O)c1cn2cc(-c3ccncc3F)nc(NCC3(F)CCNCC3)c2n1 [Compound 33, 8-[(4-Fluoro-piperidin-4-ylmethyl)-amino]-6-(3-fluoro-pyridin-4-yl)-imidazo[1,2-a]pyrazine-2-carboxylic acid amide]
16 | > 7.30 | 7.61 | Cc1cc(-c2cn3cc(C(N)=O)nc3c(NCC3CCNCC3)n2)ccn1 [Compound 36, 6-(2-Methyl-pyridin-4-yl)-8-[(piperidin-4-ylmethyl)-amino]-imidazo[1,2-a]pyrazine-2-carboxylic acid amide]
17 |  | 7.46 | NC(=O)c1cn2cc(-c3ccnc(N)c3)nc(NCC3(F)CCNCC3)c2n1 [Compound 41, 6-(2-Amino-pyridin-4-yl)-8-[(4-fluoro-piperidin-4-ylmethyl)-amino]-imidazo[1,2-a]pyrazine-2-carboxylic acid amide]
18 |  | 7.33 | NC(=O)c1cn2cc(-c3ccncc3)nc(NCC3(O)CCNCC3)c2n1 [Compound 44, 8-[(4-Hydroxy-piperidin-4-ylmethyl)-amino]-6-pyridin-4-yl-imidazo[1,2-a]pyrazine-2-carboxylic acid amide]
19 |  | 7.07 | NC(=O)c1cn2cc(-c3ccns3)nc(NCC3(F)CCNCC3)c2n1 [Compound 46, 8-[(4-Fluoro-piperidin-4-ylmethyl)-amino]-6-isothiazol-5-yl-imidazo[1,2-a]pyrazine-2-carboxylic acid amide]
